Reference: patent US10844051B2, “Substituted oxazoles for the treatment of cancer” (THE ROYAL INSTITUTION FOR THE ADCANCEMENT OF …, priority 2015, dated 2020)

Test system: hSTING and/or mSTING
Assay: hSTING- or mSTING-dependent ISRE-luc reporter assay in 293T cells
Format: cell-based
Settings: 24 hours
Description: ISRE-luc (reporter), pRL-TK (internal control) and hSTING- or mSTING-expressing plasmids were transiently transfected into 293T cells. Cells were exposed to DMSO vehicle control or compounds for 24 hours. Experiments were done in triplicate.

SMILES	activation of hSTING and/or mSTING in ISRE-luc reporter assay	activation of hSTING and/or mSTING in ISRE-luc reporter assay (10 μM)	further results
Oc1ccc(N2CCN(Cc3nc(-c4cccc(F)c4)c(-c4cccc(F)c4)[nH]3)CC2)cc1 [Compound 1139]	activate hSTING and/or mSTING	–	–
N#Cc1ccc(N2CCN(Cc3nc(-c4ccccc4)c(-c4ccccc4)[nH]3)CC2)cc1 [Compound 1120]	activate hSTING and/or mSTING	–	–
Fc1cccc(-c2nc(/C=C/c3ccsc3)[nH]c2-c2cccc(F)c2)c1 [Compound 1037]	–	activate hSTING and/or mSting	–
Fc1cccc(-c2nc(CN3CCN(c4ccc(Br)cc4)CC3)[nH]c2-c2cccc(F)c2)c1 [Compound 1174]	–	activate hSTING and/or mSTING	–
Clc1ccc(N2CCN(Cc3nc(-c4ccccc4)c(-c4ccccc4)[nH]3)CC2)cc1Cl [Compound 1098]	activate hSTING and/or mSTING	–	–
N#Cc1ccccc1CN1CCN(Cc2nc(-c3ccccc3)c(-c3ccccc3)o2)CC1 [Compound 1364]	activate hSTING and/or mSTING	–	–
COc1cccc(N2CCN(Cc3nc(-c4cccc(F)c4)c(-c4cccc(F)c4)[nH]3)CC2)c1 [Compound 1141]	activate hSTING and/or mSTING	–	–
c1ccc(-c2nc(CN3CCN(Cc4ccccn4)CC3)oc2-c2ccccc2)cc1 [Compound 1285]	activate hSTING and/or mSTING	–	–
Fc1cccc(-c2nc(CN3CCC(c4cccc(C(F)(F)F)c4)CC3)[nH]c2-c2cccc(F)c2)c1 [Compound 1173]	–	activate hSTING and/or mSTING	–
Fc1cccc(-c2nc(CN3CCC(c4c[nH]c5ccccc45)CC3)[nH]c2-c2cccc(F)c2)c1 [Compound 1137]	activate hSTING and/or mSTING	–	–
COc1ccc(CN2CCN(Cc3nc(-c4ccccc4)c(-c4ccccc4)o3)CC2)cc1 [Compound 1287]	activate hSTING and/or mSTING	–	–
OC1(c2cccc(C(F)(F)F)c2)CCN(Cc2nc(-c3ccccc3)c(-c3ccccc3)o2)CC1 [Compound 1127]	activate hSTING and/or mSTING	–	–
c1ccc(-c2nc(CN3CCN(c4ccccn4)CC3)oc2-c2ccccc2)cc1 [Compound 1227]	–	–	activation of hSTING and/or mSTING in ISRE-luc reporter assay (20 μM): activate hSTING and/or mSTING
c1ccc(-c2nc(CN3CCN(c4ccccc4)CC3)[nH]c2-c2ccccc2)cc1 [Compound 1099]	activate hSTING and/or mSTING	–	–
Fc1cccc(-c2nc(CN3CCN(Cc4ccccc4)CC3)[nH]c2-c2cccc(F)c2)c1 [Compound 1175]	–	activate hSTING and/or mSTING	–
OC1(c2cccc(C(F)(F)F)c2)CCN(Cc2nc(-c3ccccc3)c(-c3ccccc3)[nH]2)CC1 [Compound 1129]	activate hSTING and/or mSTING	–	–
COc1cccc(N2CCN(Cc3nc(-c4ccccc4)c(-c4ccccc4)[nH]3)CC2)c1 [Compound 1143]	activate hSTING and/or mSTING	–	–
Fc1cccc(-c2nc(/C=C/c3cc(C(F)(F)F)cc(C(F)(F)F)c3)oc2-c2cccc(F)c2)c1 [Compound 1012]	–	activate hSTING and/or mSting	–
FC(F)(F)c1cccc(CCc2nc(-c3ccccc3)c(-c3ccccc3)o2)c1 [Compound 1011]	–	activate hSTING and/or mSting	–
Brc1ccc(N2CCN(Cc3nc(-c4ccccc4)c(-c4ccccc4)o3)CC2)cc1 [Compound 1097]	activate hSTING and/or mSTING	–	–

SMILES	activation of hSTING and/or mSTING in ISRE-luc reporter assay	activation of hSTING and/or mSTING in ISRE-luc reporter assay (10 μM)	further results
O=[N+]([O-])c1ccccc1S(=O)(=O)N(Cc1ccc2[nH]ccc2c1)Cc1nc(-c2cccc(F)c2)c(-c2cccc(F)c2)[nH]1 [Compound 1040]	activate hSTING and/or mSTING	–	–
O=C(c1ccc(F)cc1)N1CCN(Cc2nc(-c3cccc(F)c3)c(-c3cccc(F)c3)[nH]2)CC1 [Compound 1179]	–	activate hSTING and/or mSTING	–
Fc1cccc(-c2nc(CNCc3ccc4[nH]ccc4c3)[nH]c2-c2cccc(F)c2)c1 [Compound 1042]	activate hSTING and/or mSTING	–	–
Oc1ccccc1N1CCN(Cc2nc(-c3cccc(F)c3)c(-c3cccc(F)c3)[nH]2)CC1 [Compound 1183]	–	–	activation of hSTING and/or mSTING in ISRE-luc reporter assay (20 μM): activate hSTING and/or mSTING
COc1cccc(N2CCN(Cc3nc(-c4ccccc4)c(-c4ccccc4)o3)CC2)c1 [Compound 1142]	activate hSTING and/or mSTING	–	–
N#Cc1cccc(CN2CCN(Cc3nc(-c4ccccc4)c(-c4ccccc4)o3)CC2)c1 [Compound 1360]	activate hSTING and/or mSTING	–	–
Fc1cccc(CN2CCN(Cc3nc(-c4ccccc4)c(-c4ccccc4)o3)CC2)c1 [Compound 1286]	activate hSTING and/or mSTING	–	–
Fc1ccc(CN2CCN(Cc3nc(-c4ccccc4)c(-c4ccccc4)o3)CC2)cc1 [Compound 1288]	activate hSTING and/or mSTING	–	–
Fc1cccc(-c2nc(/C=C/c3cccs3)oc2-c2cccc(F)c2)c1 [Compound 1013]	–	activate hSTING and/or mSting	–
COc1ccc2[nH]cc(CCNCc3nc(-c4cccc(F)c4)c(-c4cccc(F)c4)[nH]3)c2c1 [Compound 1041]	activate hSTING and/or mSTING	–	–
C=CCN(CCc1c[nH]c2ccccc12)Cc1nc(-c2ccccc2)c(-c2ccccc2)o1 [Compound 1372]	activate hSTING and/or mSTING	–	–
O=C(c1ccccc1F)N1CCN(Cc2nc(-c3cccc(F)c3)c(-c3cccc(F)c3)[nH]2)CC1 [Compound 1178]	–	activate hSTING and/or mSTING	–
COc1cccc(CN2CCN(Cc3nc(-c4ccccc4)c(-c4ccccc4)o3)CC2)c1 [Compound 1289]	activate hSTING and/or mSTING	–	–
O=C(c1cccc(F)c1)N1CCN(Cc2nc(-c3cccc(F)c3)c(-c3cccc(F)c3)[nH]2)CC1 [Compound 1177]	–	activate hSTING and/or mSTING	–
O=C(c1ccco1)N1CCN(Cc2nc(-c3ccccc3)c(-c3ccccc3)[nH]2)CC1 [Compound 1125]	activate hSTING and/or mSTING	–	–
COc1cccc(-c2nc(CCc3cc(C(F)(F)F)cc(C(F)(F)F)c3)oc2-c2cccc(OC)c2)c1 [Compound 1033]	–	activate hSTING and/or mSting	–
COCCN1CCN(Cc2nc(-c3ccccc3)c(-c3ccccc3)o2)CC1 [Compound 1370]	activate hSTING and/or mSTING	–	–
OC1(c2ccccc2)CCN(Cc2nc(-c3ccccc3)c(-c3ccccc3)o2)CC1 [Compound 1103]	activate hSTING and/or mSTING	–	–
Fc1cccc(-c2nc(/C=C/c3ccoc3)oc2-c2cccc(F)c2)c1 [Compound 1035]	–	activate hSTING and/or mSting	–
O=C(c1ccccc1)N1CCN(Cc2nc(-c3cccc(F)c3)c(-c3cccc(F)c3)[nH]2)CC1 [Compound 1121]	activate hSTING and/or mSTING	–	–
